From patent publication US12318435B2, “Recombinant protein produced from cholinesterase gene derived from Pseudomonas aeruginosa and the composition comprising the same for treating or preventing a neurological disease” (priority 2019, dated 2025)

Key:
Type in all cases: in vivo
ICR mice = assay: Survival rate in pesticide-exposed animal model; settings: female ICR mice, intraperitoneal; 250 μg NP protein, 30 μg carbofuran, 9 mg trichlorfon; NP 40 mins before pesticide; survival observed for 30 mins
Description: In order to determine the survival rate of the inventive NP protein on pesticide-exposed animal model, following test was performed by the procedure disclosed in the literature (Gupta, Ramesh C., ‘Carbofuran toxicity’, Journal of Toxicology and Environmental Health, Part A, 43:4, pp 383-418, 1994).
(§1) Specific pathogen-free female ICR mice (about 20 g, aged 6 weeks) were purchased from ORIENT Co. (Seoul, Korea) and acclimated with the experimental environment for 1 week.
250 μg of NP protein was intraperitoneally injected to the mice as a test sample group to observe the behavior of the mice for 40 mins and 30 μg of carbofuran and 9 mg of trichlorfon were intraperitoneally injected to the mice to observe the survival rate of the mice for 30 mins.
The group intraperitoneally injected with only 30 μg of carbofuran or 9 mg of trichlorfon were used as positive control groups to observe the survival rate of the mice and the group intraperitoneally injected with only distilled water […] was used as a negative control group to observe the survival rate of the mice.

choline = assay: Blood level of choline in pesticide-exposed animal model; settings: serum of the mice of Experimental Example 2; for Level of blood acetylcholine, Concentration: absorbance 570 nm
Description: In order to determine the effect on the blood level of choline of the inventive NP protein in pesticide-exposed animal model, following test was performed by the procedure disclosed in the literature (Choline/Acetylcholine Quantification Colorimetric/Fluorometric Kit, Biovision incorporated 155 S Milpitas Boulevard, Milpitas, Calif. 95035 USA).
as §1
(§2) The mice used in Experimental Example 2 intraperitoneally injected with […] of NP protein as a test sample group, were killed with carbon dioxide gas (Shinyang Oxygen Industry, Korea) and the blood was collected from the heart to isolate the serum.
The choline level of blood serum was determined Choline/Acetylcholine Quantification Colorimetric/Fluorometric Kit (Cat. No. K615-100, Biovision).
1 μL of serum was added to 49 μL of buffer solution in the kit and the reaction mixture containing […] of buffer solution, 2 μL of choline probe, 2 μL of ACHE and 2 μL of enzyme mixture solution was added thereto to react together in the shadow at 25° C. for 30 mins.
30 mins after the reaction, the absorbance of the reaction solution was determined at 570 nm using by spectrometer (Multiskan Go., Thermo Scientific) and the determined level was transformed into absolute value by comparing with the level of standard curve.
The level of choline was calculated according to following Math. 1 Blood Level of choline(nmole/mL or micromole)=(calculated level of choline through standard curve)/(the amount of samples in each well;mL). [Math. 1] 3-2. Test Result

ACHE activity = assay: Serum ACHE activity of pesticide-exposed mice; settings: serum of the mice of Experimental Example 2; for ACHE activity, Concentration (mU/mL): 25° C., 570 nm
Description: as §1, §2
30 mins after the reaction, the absorbance of the reaction solution was determined at every 1 min at 570 nm using by spectrometer (Multiskan Go., Thermo Scientific) and the determined level was calculated according to following Math. […] [Math. 2] 4-2. Test Result

CNC(=O)Oc1cccc2c1OC(C)(C)C2 [Carbofuran]
Survival rate (%) (ICR mice): 0%
amount of acetylcholine (in words) (choline): sharply increased amount of acetylcholine
Level of blood acetylcholine, Concentration (choline): 1.8 nmol/mL
ACHE activity compared with negative control group (in words) (ACHE activity): decreased ACHE activity
ACHE activity, Concentration (mU/mL) (ACHE activity): 463.8 mU/mL

COP(=O)(OC)C(O)C(Cl)(Cl)Cl (stereo not shown) [Trichlorfon, trichlorfon]
Survival rate (%) (ICR mice): 60%
amount of acetylcholine (in words) (choline): sharply increased amount of acetylcholine
Level of blood acetylcholine, Concentration (choline): 1.4 nmol/mL
ACHE activity compared with negative control group (in words) (ACHE activity): decreased ACHE activity
ACHE activity, Concentration (mU/mL) (ACHE activity): 117.7 mU/mL
